For twelve compounds, IC50 results are on record in patent US10633419B2, “Immunomodulators” (BRISTOL-MYERS SQUIBB COMPANY, priority 2014, dated 2020).

Starred links: 1 amine or outer side, 2 acyl side, 3 side chain; linkers in the order of their positions; H or OH if unused. Positions of bridges follow the written chain, without caps; N, C: chain ends. Non-standard residues stand in square brackets, D forms with d. Residues, ends and D or L forms follow the SMILES beside them. *: point of attachment. Succinyl(O-RRR-αToc) = Cc1c(C)c2c(c(C)c1OC(=O)CCC(=O)*)CC[C@@](C)(CCC[C@H](C)CCC[C@H](C)CCCC(C)C)O2; Trp(1-CH2COOH) = N[C@@H](Cc1cn(CC(=O)O)c2ccccc12)C(=O)O; X21 = O=C([C@H](CC1=CC(CCCCCN[*:3])N=N1)N[*:1])[*:2]; X9 = O=C(O)CCCCCCCCCCCCCCCCC(=O)N[C@@H](CCN*)C(=O)O; βAsp = O=C(O)[C@H](CC(=O)[*:2])N[*:1]; X16 = O=C([C@H]1COCCN1[*:1])[*:2]; Hyp = O=C(O)[C@@H]1C[C@@H](O)CN1; NMeNle = CCCC[C@H](NC)C(=O)O; Pip = O=C(O)[C@@H]1CCCCN1; NMeA = CN[C@@H](C)C(=O)O; Dab = NCC[C@H](N)C(=O)O; Dap = NC[C@H](N)C(=O)O; PEG2 = NCCOCCOCCC(=O)O; PEG1 = NCCOCCC(=O)O; AEA = NCCOCC(=O)O; Ava = NCCCCC(=O)O; GABA = NCCCC(=O)O; βAla = NCCC(=O)O

For one experiment, the target named is T1, PD-L1 (Homo sapiens, UniProt Q9NZQ7).
T1 construct: hPDL1(19-239)-TVMV-His; made in house; host or cells: HEK293T
T1 sequence (Q9NZQ7 with tags, fused parts or gaps): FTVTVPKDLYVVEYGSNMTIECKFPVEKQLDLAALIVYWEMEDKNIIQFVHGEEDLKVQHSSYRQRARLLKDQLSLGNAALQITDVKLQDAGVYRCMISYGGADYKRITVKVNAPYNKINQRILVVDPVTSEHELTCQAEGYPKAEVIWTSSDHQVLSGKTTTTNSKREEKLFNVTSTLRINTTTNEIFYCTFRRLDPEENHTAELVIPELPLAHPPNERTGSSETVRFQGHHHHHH
The experiment in a line: PD-1/PD-L1 Homogenous Time-Resolved Fluorescence (HTRF) binding assay (PD-1-Ig/PD-L1-His).
Conditions: not given
The method in brief:
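HTRF competition in dPBS with 0.1% BSA and 0.05% Tween-20: 20 nM PD-1-Ig added after 15 min compound pre-incubation with 10 nM PD-L1-His, then another 15 min. Signal (665/620 nm) after 30 min with APC anti-His (20 nM) and Eu anti-Ig (1 nM).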
In turn, `CCCC[C@H]1C(=O)N(C)[C@@H](CCCC)C(=O)N[C@@H](CCC(=O)O)C(=O)N[C@H](C(=O)NCC(=O)N[C@@H](CC2=CC(CCCCCNC(=O)CCC(=O)Oc3c(C)c(C)c4c(c3C)CC[C@@](C)(CCC[C@H](C)CCC[C@H](C)CCCC(C)C)O4)N=N2)C(=O)NCC(N)=O)CSCC(=O)N[C@@H](Cc2ccc(O)cc2)C(=O)N(C)[C@@H](C)C(=O)N[C@@H](CC(=O)O)C(=O)N2CCC[C@H]2C(=O)N[C@@H](Cc2c[nH]cn2)C(=O)N[C@@H](CCCCN)C(=O)N2C[C@H](O)C[C@H]2C(=O)N[C@@H](Cc2c[nH]c3ccccc23)C(=O)N[C@@H](CCCCN)C(=O)N[C@@H](Cc2c[nH]c3ccccc23)C(=O)N1C` (stereo partly drawn) [Example 14051] ({CH2CO}-Y[NMeA]DPHK[Hyp]WKW[NMeNle][NMeNle]ECG[X21](Succinyl(O-RRR-αToc))G-NH2; thioether N-14) displayed an IC50 of 100 to 1600 nM.
The same measure, in the same setting: the figure for `CCCC[C@H]1C(=O)N(C)[C@@H](CCCC)C(=O)N[C@@H](CCC(=O)O)C(=O)N[C@H](C(=O)NCC(=O)N[C@@H](Cc2cn(CCOCCOCCOCCOCCOCCOCCOCCOC(=O)CCC(=O)Oc3c(C)c(C)c4c(c3C)CC[C@@](C)(CCC[C@H](C)CCC[C@H](C)CCCC(C)C)O4)nn2)C(=O)NCC(N)=O)CSCC(=O)N[C@@H](Cc2ccc(O)cc2)C(=O)N(C)[C@@H](C)C(=O)N[C@@H](CC(=O)O)C(=O)N2CCC[C@H]2C(=O)N[C@@H](Cc2c[nH]cn2)C(=O)N[C@@H](CCCCN)C(=O)N2C[C@H](O)C[C@H]2C(=O)N[C@@H](Cc2c[nH]c3ccccc23)C(=O)N[C@@H](CCCCN)C(=O)N[C@@H](Cc2c[nH]c3ccccc23)C(=O)N1C` [Example 14052] is 10 to 99 nM; for `CCCC[C@H]1C(=O)N(C)[C@@H](CCCC)C(=O)N[C@@H](CCC(=O)O)C(=O)N[C@H](C(=O)NCC(=O)N[C@@H](Cc2cn(CCOCCOCCOCCOCCOCCOC(=O)CCC(=O)Oc3c(C)c(C)c4c(c3C)CC[C@@](C)(CCC[C@H](C)CCC[C@H](C)CCCC(C)C)O4)nn2)C(=O)NCC(N)=O)CSCC(=O)N[C@@H](Cc2ccc(O)cc2)C(=O)N(C)[C@@H](C)C(=O)N[C@@H](CC(=O)O)C(=O)N2CCC[C@H]2C(=O)N[C@@H](Cc2c[nH]cn2)C(=O)N[C@@H](CCCCN)C(=O)N2C[C@H](O)C[C@H]2C(=O)N[C@@H](Cc2c[nH]c3ccccc23)C(=O)N[C@@H](CCCCN)C(=O)N[C@@H](Cc2c[nH]c3ccccc23)C(=O)N1C` [Example 14053] it is 100 to 1600 nM.

The experiment is the same for the next values; noted with them: inhibition of PD-1-Ig binding to PD-L1-TVMV-His; value given as number; read-out: HTRF IC50.
With `CCCC[C@H]1C(=O)N(C)[C@@H](CCCC)C(=O)N[C@@H](CC(C)C)C(=O)N[C@H](C(=O)NCC(=O)N[C@@H](CC(=O)NCCCC(=O)NCC[C@H](NC(=O)CCCCCCCCCCCCCCCCC(=O)O)C(=O)O)C(=O)O)CSCC(=O)N[C@@H](Cc2ccc(O)cc2)C(=O)N2CCCC[C@H]2C(=O)N[C@@H](CC(N)=O)C(=O)N2CCC[C@H]2C(=O)N[C@@H](CN)C(=O)N[C@@H](CC(C)C)C(=O)N2C[C@H](O)C[C@H]2C(=O)N[C@@H](Cc2c[nH]c3ccccc23)C(=O)N[C@@H](CCN)C(=O)N[C@@H](Cc2cn(CC(=O)O)c3ccccc23)C(=O)N1C` [Example 13162] ({CH2CO}-Y[Pip]NP[Dap]L[Hyp]W[Dab][Trp(1-CH2COOH)][NMeNle][NMeNle]LCG[βAsp][GABA]-X9; thioether N-14), the 50% inhibitory concentration (IC50) amounted to 3.8 nM.

The experiment is the same for the next values; noted with them: inhibition of PD-1-Ig binding to PD-L1-TVMV-His; value given as range class; read-out: HTRF IC50.
For the compound `CCCC[C@H]1C(=O)N(C)[C@@H](CCCC)C(=O)N[C@@H](CC(C)C)C(=O)N[C@H](C(=O)NCC(=O)N[C@@H](CC(=O)NCC[C@H](NC(=O)CCCCCCCCCCCCCCCCC(=O)O)C(=O)O)C(=O)O)CSCC(=O)N[C@@H](Cc2ccc(OC)cc2)C(=O)N2CCCC[C@H]2C(=O)N[C@@H](CC(N)=O)C(=O)N2CCC[C@H]2C(=O)N[C@@H](Cc2c[nH]cn2)C(=O)N[C@@H](CCC(N)=O)C(=O)N2C[C@H](O)C[C@H]2C(=O)N[C@@H](Cc2c[nH]c3ccccc23)C(=O)N[C@@H](CCN)C(=O)N[C@@H](Cc2cn(CC(=O)O)c3ccccc23)C(=O)N1C` [Example 13156] ({CH2CO}-Y(Me)[Pip]NPHQ[Hyp]W[Dab][Trp(1-CH2COOH)][NMeNle][NMeNle]LCGD(X9)-OH; thioether N-14), the 50% inhibitory concentration (IC50) lay in the range of 0.3 to 9.9 nM.
Same read-out and setting: the figure for `CCCC[C@H]1C(=O)N(C)[C@@H](CCCC)C(=O)N[C@@H](CC(C)C)C(=O)N[C@H](C(=O)NCC(=O)N[C@@H](CC(=O)NCC[C@H](NC(=O)CCCCCCCCCCCCCCCCC(=O)O)C(=O)O)C(=O)O)CSCC(=O)N[C@@H](Cc2ccc(OC)cc2)C(=O)N2CCCC[C@H]2C(=O)N[C@@H](CC(=O)O)C(=O)N2CCC[C@H]2C(=O)N[C@@H](Cc2c[nH]cn2)C(=O)N[C@@H](CCC(N)=O)C(=O)N2C[C@H](O)C[C@H]2C(=O)N[C@@H](Cc2c[nH]c3ccccc23)C(=O)N[C@@H](CCN)C(=O)N[C@@H](Cc2cn(CC(=O)O)c3ccccc23)C(=O)N1C` [Example 13157] ({CH2CO}-Y(Me)[Pip]DPHQ[Hyp]W[Dab][Trp(1-CH2COOH)][NMeNle][NMeNle]LCGD(X9)-OH; thioether N-14) is 0.3 to 9.9 nM.
The same measure, in the same setting: the figure for `CCCC[C@H]1C(=O)N(C)[C@@H](CCCC)C(=O)N[C@@H](CC(C)C)C(=O)N[C@H](C(=O)NCC(=O)N[C@@H](CC(=O)N2CCOC[C@@H]2C(=O)NCC[C@H](NC(=O)CCCCCCCCCCCCCCCCC(=O)O)C(=O)O)C(=O)O)CSCC(=O)N[C@@H](Cc2ccc(O)cc2)C(=O)N2CCCC[C@H]2C(=O)N[C@@H](CC(N)=O)C(=O)N2CCC[C@H]2C(=O)N[C@@H](CN)C(=O)N[C@@H](CC(C)C)C(=O)N2C[C@H](O)C[C@H]2C(=O)N[C@@H](Cc2c[nH]c3ccccc23)C(=O)N[C@@H](CCN)C(=O)N[C@@H](Cc2cn(CC(=O)O)c3ccccc23)C(=O)N1C` [Example 13158] ({CH2CO}-Y[Pip]NP[Dap]L[Hyp]W[Dab][Trp(1-CH2COOH)][NMeNle][NMeNle]LCG[βAsp][X16]-X9; thioether N-14) is 0.3 to 9.9 nM; for `CCCC[C@H]1C(=O)N(C)[C@@H](CCCC)C(=O)N[C@@H](CC(C)C)C(=O)N[C@H](C(=O)NCC(=O)N[C@@H](CC(=O)NCCOCC(=O)NCC[C@H](NC(=O)CCCCCCCCCCCCCCCCC(=O)O)C(=O)O)C(=O)O)CSCC(=O)N[C@@H](Cc2ccc(O)cc2)C(=O)N2CCCC[C@H]2C(=O)N[C@@H](CC(N)=O)C(=O)N2CCC[C@H]2C(=O)N[C@@H](CN)C(=O)N[C@@H](CC(C)C)C(=O)N2C[C@H](O)C[C@H]2C(=O)N[C@@H](Cc2c[nH]c3ccccc23)C(=O)N[C@@H](CCN)C(=O)N[C@@H](Cc2cn(CC(=O)O)c3ccccc23)C(=O)N1C` [Example 13159] ({CH2CO}-Y[Pip]NP[Dap]L[Hyp]W[Dab][Trp(1-CH2COOH)][NMeNle][NMeNle]LCG[βAsp][AEA]-X9; thioether N-14) it is 0.3 to 9.9 nM; for `CCCC[C@H]1C(=O)N(C)[C@@H](CCCC)C(=O)N[C@@H](CC(C)C)C(=O)N[C@H](C(=O)NCC(=O)N[C@@H](CC(=O)NCCC(=O)NCC[C@H](NC(=O)CCCCCCCCCCCCCCCCC(=O)O)C(=O)O)C(=O)O)CSCC(=O)N[C@@H](Cc2ccc(O)cc2)C(=O)N2CCCC[C@H]2C(=O)N[C@@H](CC(N)=O)C(=O)N2CCC[C@H]2C(=O)N[C@@H](CN)C(=O)N[C@@H](CC(C)C)C(=O)N2C[C@H](O)C[C@H]2C(=O)N[C@@H](Cc2c[nH]c3ccccc23)C(=O)N[C@@H](CCN)C(=O)N[C@@H](Cc2cn(CC(=O)O)c3ccccc23)C(=O)N1C` [Example 13160] ({CH2CO}-Y[Pip]NP[Dap]L[Hyp]W[Dab][Trp(1-CH2COOH)][NMeNle][NMeNle]LCG[βAsp][βAla]-X9; thioether N-14) it is 0.3 to 9.9 nM.
On the same count and under the same terms, the result for `CCCC[C@H]1C(=O)N(C)[C@@H](CCCC)C(=O)N[C@@H](CC(C)C)C(=O)N[C@H](C(=O)NCC(=O)N[C@@H](CC(=O)NCCOCCC(=O)NCC[C@H](NC(=O)CCCCCCCCCCCCCCCCC(=O)O)C(=O)O)C(=O)O)CSCC(=O)N[C@@H](Cc2ccc(O)cc2)C(=O)N2CCCC[C@H]2C(=O)N[C@@H](CC(N)=O)C(=O)N2CCC[C@H]2C(=O)N[C@@H](CN)C(=O)N[C@@H](CC(C)C)C(=O)N2C[C@H](O)C[C@H]2C(=O)N[C@@H](Cc2c[nH]c3ccccc23)C(=O)N[C@@H](CCN)C(=O)N[C@@H](Cc2cn(CC(=O)O)c3ccccc23)C(=O)N1C` [Example 13161] ({CH2CO}-Y[Pip]NP[Dap]L[Hyp]W[Dab][Trp(1-CH2COOH)][NMeNle][NMeNle]LCG[βAsp][PEG1]-X9; thioether N-14) reads 0.3 to 9.9 nM; that for `CCCC[C@H]1C(=O)N(C)[C@@H](CCCC)C(=O)N[C@@H](CC(C)C)C(=O)N[C@H](C(=O)NCC(=O)N[C@@H](CC(=O)NCCOCCOCCC(=O)NCC[C@H](NC(=O)CCCCCCCCCCCCCCCCC(=O)O)C(=O)O)C(=O)O)CSCC(=O)N[C@@H](Cc2ccc(O)cc2)C(=O)N2CCCC[C@H]2C(=O)N[C@@H](CC(N)=O)C(=O)N2CCC[C@H]2C(=O)N[C@@H](CN)C(=O)N[C@@H](CC(C)C)C(=O)N2C[C@H](O)C[C@H]2C(=O)N[C@@H](Cc2c[nH]c3ccccc23)C(=O)N[C@@H](CCN)C(=O)N[C@@H](Cc2cn(CC(=O)O)c3ccccc23)C(=O)N1C` [Example 13163] ({CH2CO}-Y[Pip]NP[Dap]L[Hyp]W[Dab][Trp(1-CH2COOH)][NMeNle][NMeNle]LCG[βAsp][PEG2]-X9; thioether N-14), 0.3 to 9.9 nM.
For `CCCC[C@H]1C(=O)N(C)[C@@H](CCCC)C(=O)N[C@@H](CC(C)C)C(=O)N[C@H](C(=O)NCC(=O)N[C@@H](CC(=O)NCCCCC(=O)NCC[C@H](NC(=O)CCCCCCCCCCCCCCCCC(=O)O)C(=O)O)C(=O)O)CSCC(=O)N[C@@H](Cc2ccc(O)cc2)C(=O)N2CCCC[C@H]2C(=O)N[C@@H](CC(N)=O)C(=O)N2CCC[C@H]2C(=O)N[C@@H](CN)C(=O)N[C@@H](CC(C)C)C(=O)N2C[C@H](O)C[C@H]2C(=O)N[C@@H](Cc2c[nH]c3ccccc23)C(=O)N[C@@H](CCN)C(=O)N[C@@H](Cc2cn(CC(=O)O)c3ccccc23)C(=O)N1C` [Example 13164] ({CH2CO}-Y[Pip]NP[Dap]L[Hyp]W[Dab][Trp(1-CH2COOH)][NMeNle][NMeNle]LCG[βAsp][Ava]-X9; thioether N-14), the IC50 is 0.3 to 9.9 nM.
